Source: ChEMBL document CHEMBL4507267 (2021)

Key:
[1] = target: Serine/threonine-protein kinase 32B (Homo sapiens) (UniProt Q9NY57); details: Compound concentration 1000.0 nM
[2] = target: Serine/threonine-protein kinase WNK3 (Homo sapiens) (UniProt Q9BYP7); details: Compound concentration 1000.0 nM
[3] = target: Cyclin-dependent kinase 17 (Homo sapiens) (UniProt Q00537); details: Compound concentration 1000.0 nM
[4] = target: Calcium/calmodulin-dependent protein kinase type 1D (Homo sapiens) (UniProt Q8IU85); details: Compound concentration 1000.0 nM
[5] = target: Ankyrin repeat and protein kinase domain-containing protein 1 (Homo sapiens) (UniProt Q8NFD2); details: Compound concentration 1000.0 nM
[6] = target: Serine/threonine-protein kinase Nek7 (Homo sapiens) (UniProt Q8TDX7); details: Compound concentration 1000.0 nM
[7] = target: Serine/threonine-protein kinase ULK1 (Homo sapiens) (UniProt O75385); details: Compound concentration 1000.0 nM
[8] = target: Mast/stem cell growth factor receptor Kit (Homo sapiens) (UniProt P10721); details: Compound concentration 1000.0 nM
[9] = target: 5'-AMP-activated protein kinase catalytic subunit alpha-1 (Homo sapiens) (UniProt Q13131); details: Compound concentration 1000.0 nM
[10] = target: Dual specificity protein kinase CLK3 (Homo sapiens) (UniProt P49761); details: Compound concentration 1000.0 nM
[11] = target: Tyrosine-protein kinase CSK (Homo sapiens) (UniProt P41240); details: Compound concentration 1000.0 nM
[12] = target: Macrophage colony-stimulating factor 1 receptor (Homo sapiens) (UniProt P07333); details: Compound concentration 1000.0 nM
[13] = target: Serine/threonine-protein kinase D1 (Homo sapiens) (UniProt Q15139); details: Compound concentration 1000.0 nM
[14] = target: Phosphatidylinositol 3-kinase C2 domain-containing subunit gamma (Homo sapiens) (UniProt O75747); details: Compound concentration 1000.0 nM
[15] = target: 5-hydroxytryptamine receptor 1A (Homo sapiens) (UniProt P08908); details: Compound concentration 10.0 uM
[16] = target: Activin receptor type-1B (Homo sapiens) (UniProt P36896); details: Compound concentration 1000.0 nM
[17] = target: Leucine-rich repeat serine/threonine-protein kinase 2 (Homo sapiens) (UniProt Q5S007); details: Compound concentration 1000.0 nM
[18] = target: Protein-tyrosine kinase 6 (Homo sapiens) (UniProt Q13882); details: Compound concentration 1000.0 nM
[19] = target: BMP-2-inducible protein kinase (Homo sapiens) (UniProt Q9NSY1); details: Compound concentration 1000.0 nM
[20] = system: Phosphatidylinositol 4,5-bisphosphate 3-kinase catalytic subunit alpha isoform (Homo sapiens), P42336 [Q546K]; details: Compound concentration 1000.0 nM
[21] = target: Glycogen synthase kinase-3 beta (Homo sapiens) (UniProt P49841); details: Compound concentration 1000.0 nM
[22] = target: Serine/threonine-protein kinase Nek5 (Homo sapiens) (UniProt Q6P3R8); details: Compound concentration 1000.0 nM
[23] = target: Mitogen-activated protein kinase kinase kinase 6 (Homo sapiens) (UniProt O95382); details: Compound concentration 1000.0 nM
[24] = target: Calcium/calmodulin-dependent protein kinase type IV (Homo sapiens) (UniProt Q16566); details: Compound concentration 1000.0 nM
[25] = target: D(3) dopamine receptor (Homo sapiens) (UniProt P35462); details: Compound concentration 10.0 uM
[26] = system: Mast/stem cell growth factor receptor Kit (Homo sapiens), P10721 [D816H]; details: Compound concentration 1000.0 nM
[27] = target: Bone morphogenetic protein receptor type-1B (Homo sapiens) (UniProt O00238); details: Compound concentration 1000.0 nM
[28] = target: Cyclin-dependent kinase 4 (Homo sapiens) (UniProt P11802); details: Compound concentration 1000.0 nM
[29] = target: Misshapen-like kinase 1 (Homo sapiens) (UniProt Q8N4C8); details: Compound concentration 1000.0 nM
[30] = target: Ribosomal protein S6 kinase alpha-1 (Homo sapiens) (UniProt Q15418); details: Compound concentration 1000.0 nM
[31] = target: Macrophage colony-stimulating factor 1 receptor (Homo sapiens) (UniProt P07333); details: Compound concentration 1000.0 nM; remark: listed apart in the source
[32] = target: Mitogen-activated protein kinase kinase kinase 14 (Homo sapiens) (UniProt Q99558); details: Compound concentration 1000.0 nM
[33] = system: Phosphatidylinositol 4,5-bisphosphate 3-kinase catalytic subunit alpha isoform (Homo sapiens), P42336 [E545K]; details: Compound concentration 1000.0 nM
[34] = target: Protein kinase C delta type (Homo sapiens) (UniProt Q05655); details: Compound concentration 1000.0 nM
[35] = target: Muscarinic acetylcholine receptor M5 (Homo sapiens) (UniProt P08912); details: Compound concentration 10.0 uM
[36] = target: Maternal embryonic leucine zipper kinase (Homo sapiens) (UniProt Q14680); details: Compound concentration 1000.0 nM
[37] = target: Dual specificity mitogen-activated protein kinase kinase 4 (Homo sapiens) (UniProt P45985); details: Compound concentration 1000.0 nM
[38] = target: Tyrosine-protein kinase Srms (Homo sapiens) (UniProt Q9H3Y6); details: Compound concentration 1000.0 nM
[39] = target: Rho-associated protein kinase 1 (Homo sapiens) (UniProt Q13464); details: Compound concentration 1000.0 nM
[40] = target: Mitogen-activated protein kinase 4 (Homo sapiens) (UniProt P31152); details: Compound concentration 1000.0 nM
[41] = target: Serine/threonine-protein kinase WNK2 (Homo sapiens) (UniProt Q9Y3S1); details: Compound concentration 1000.0 nM
[42] = target: Serine/threonine-protein kinase N1 (Homo sapiens) (UniProt Q16512); details: Compound concentration 1000.0 nM
[43] = target: Ephrin type-A receptor 3 (Homo sapiens) (UniProt P29320); details: Compound concentration 1000.0 nM
[44] = target: Fibroblast growth factor receptor 1 (Homo sapiens) (UniProt P11362); details: Compound concentration 1000.0 nM
[45] = target: Serine/threonine-protein kinase PAK 1 (Homo sapiens) (UniProt Q13153); details: Compound concentration 1000.0 nM

Sequence of Macrophage colony-stimulating factor 1 receptor (Homo sapiens) (P07333 whole entry): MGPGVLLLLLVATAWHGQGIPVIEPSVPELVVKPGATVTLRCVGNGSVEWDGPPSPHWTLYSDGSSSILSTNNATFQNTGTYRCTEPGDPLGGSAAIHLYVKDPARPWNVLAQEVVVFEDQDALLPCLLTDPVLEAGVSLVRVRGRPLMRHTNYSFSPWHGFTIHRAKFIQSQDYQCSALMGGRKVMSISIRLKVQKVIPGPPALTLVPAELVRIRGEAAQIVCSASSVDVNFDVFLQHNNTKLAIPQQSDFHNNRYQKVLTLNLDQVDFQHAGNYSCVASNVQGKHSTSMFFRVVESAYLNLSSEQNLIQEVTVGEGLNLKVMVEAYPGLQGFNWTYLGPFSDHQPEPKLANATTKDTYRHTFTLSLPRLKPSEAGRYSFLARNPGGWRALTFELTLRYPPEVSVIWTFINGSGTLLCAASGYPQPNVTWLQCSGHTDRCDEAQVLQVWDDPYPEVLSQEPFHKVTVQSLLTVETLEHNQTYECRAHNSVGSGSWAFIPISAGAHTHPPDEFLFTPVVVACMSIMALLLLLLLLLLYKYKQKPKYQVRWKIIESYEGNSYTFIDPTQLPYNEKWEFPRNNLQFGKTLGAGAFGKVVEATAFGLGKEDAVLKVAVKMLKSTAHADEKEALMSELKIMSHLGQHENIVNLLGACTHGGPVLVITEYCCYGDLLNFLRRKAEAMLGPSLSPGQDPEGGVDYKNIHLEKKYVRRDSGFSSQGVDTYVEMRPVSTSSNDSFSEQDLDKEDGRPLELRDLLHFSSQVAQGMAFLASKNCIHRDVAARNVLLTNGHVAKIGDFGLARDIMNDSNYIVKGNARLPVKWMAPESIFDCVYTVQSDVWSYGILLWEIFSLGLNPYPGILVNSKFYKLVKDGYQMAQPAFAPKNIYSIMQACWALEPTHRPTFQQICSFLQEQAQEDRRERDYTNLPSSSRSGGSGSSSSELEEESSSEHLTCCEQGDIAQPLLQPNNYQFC
Sequence of Ribosomal protein S6 kinase alpha-1 (Homo sapiens) (Q15418 whole entry): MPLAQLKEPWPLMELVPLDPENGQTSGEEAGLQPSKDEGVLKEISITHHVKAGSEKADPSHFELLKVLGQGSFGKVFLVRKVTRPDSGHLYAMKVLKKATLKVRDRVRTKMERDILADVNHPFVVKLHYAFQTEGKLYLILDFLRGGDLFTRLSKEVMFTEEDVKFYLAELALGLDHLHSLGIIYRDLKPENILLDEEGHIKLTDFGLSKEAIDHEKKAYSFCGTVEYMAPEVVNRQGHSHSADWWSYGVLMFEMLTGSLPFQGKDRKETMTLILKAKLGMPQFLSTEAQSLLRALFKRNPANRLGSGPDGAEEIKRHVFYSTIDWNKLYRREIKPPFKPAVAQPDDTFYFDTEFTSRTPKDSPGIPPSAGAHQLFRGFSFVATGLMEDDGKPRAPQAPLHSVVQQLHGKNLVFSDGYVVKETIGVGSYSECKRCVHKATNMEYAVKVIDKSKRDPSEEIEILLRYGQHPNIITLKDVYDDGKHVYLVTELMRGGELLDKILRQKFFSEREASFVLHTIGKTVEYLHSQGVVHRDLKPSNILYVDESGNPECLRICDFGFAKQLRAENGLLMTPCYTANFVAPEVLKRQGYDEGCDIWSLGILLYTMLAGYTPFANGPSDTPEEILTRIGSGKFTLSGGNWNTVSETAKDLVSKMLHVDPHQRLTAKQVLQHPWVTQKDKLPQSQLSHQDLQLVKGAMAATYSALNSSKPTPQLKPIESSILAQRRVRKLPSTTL
Sequence of Leucine-rich repeat serine/threonine-protein kinase 2 (Homo sapiens) (Q5S007 whole entry): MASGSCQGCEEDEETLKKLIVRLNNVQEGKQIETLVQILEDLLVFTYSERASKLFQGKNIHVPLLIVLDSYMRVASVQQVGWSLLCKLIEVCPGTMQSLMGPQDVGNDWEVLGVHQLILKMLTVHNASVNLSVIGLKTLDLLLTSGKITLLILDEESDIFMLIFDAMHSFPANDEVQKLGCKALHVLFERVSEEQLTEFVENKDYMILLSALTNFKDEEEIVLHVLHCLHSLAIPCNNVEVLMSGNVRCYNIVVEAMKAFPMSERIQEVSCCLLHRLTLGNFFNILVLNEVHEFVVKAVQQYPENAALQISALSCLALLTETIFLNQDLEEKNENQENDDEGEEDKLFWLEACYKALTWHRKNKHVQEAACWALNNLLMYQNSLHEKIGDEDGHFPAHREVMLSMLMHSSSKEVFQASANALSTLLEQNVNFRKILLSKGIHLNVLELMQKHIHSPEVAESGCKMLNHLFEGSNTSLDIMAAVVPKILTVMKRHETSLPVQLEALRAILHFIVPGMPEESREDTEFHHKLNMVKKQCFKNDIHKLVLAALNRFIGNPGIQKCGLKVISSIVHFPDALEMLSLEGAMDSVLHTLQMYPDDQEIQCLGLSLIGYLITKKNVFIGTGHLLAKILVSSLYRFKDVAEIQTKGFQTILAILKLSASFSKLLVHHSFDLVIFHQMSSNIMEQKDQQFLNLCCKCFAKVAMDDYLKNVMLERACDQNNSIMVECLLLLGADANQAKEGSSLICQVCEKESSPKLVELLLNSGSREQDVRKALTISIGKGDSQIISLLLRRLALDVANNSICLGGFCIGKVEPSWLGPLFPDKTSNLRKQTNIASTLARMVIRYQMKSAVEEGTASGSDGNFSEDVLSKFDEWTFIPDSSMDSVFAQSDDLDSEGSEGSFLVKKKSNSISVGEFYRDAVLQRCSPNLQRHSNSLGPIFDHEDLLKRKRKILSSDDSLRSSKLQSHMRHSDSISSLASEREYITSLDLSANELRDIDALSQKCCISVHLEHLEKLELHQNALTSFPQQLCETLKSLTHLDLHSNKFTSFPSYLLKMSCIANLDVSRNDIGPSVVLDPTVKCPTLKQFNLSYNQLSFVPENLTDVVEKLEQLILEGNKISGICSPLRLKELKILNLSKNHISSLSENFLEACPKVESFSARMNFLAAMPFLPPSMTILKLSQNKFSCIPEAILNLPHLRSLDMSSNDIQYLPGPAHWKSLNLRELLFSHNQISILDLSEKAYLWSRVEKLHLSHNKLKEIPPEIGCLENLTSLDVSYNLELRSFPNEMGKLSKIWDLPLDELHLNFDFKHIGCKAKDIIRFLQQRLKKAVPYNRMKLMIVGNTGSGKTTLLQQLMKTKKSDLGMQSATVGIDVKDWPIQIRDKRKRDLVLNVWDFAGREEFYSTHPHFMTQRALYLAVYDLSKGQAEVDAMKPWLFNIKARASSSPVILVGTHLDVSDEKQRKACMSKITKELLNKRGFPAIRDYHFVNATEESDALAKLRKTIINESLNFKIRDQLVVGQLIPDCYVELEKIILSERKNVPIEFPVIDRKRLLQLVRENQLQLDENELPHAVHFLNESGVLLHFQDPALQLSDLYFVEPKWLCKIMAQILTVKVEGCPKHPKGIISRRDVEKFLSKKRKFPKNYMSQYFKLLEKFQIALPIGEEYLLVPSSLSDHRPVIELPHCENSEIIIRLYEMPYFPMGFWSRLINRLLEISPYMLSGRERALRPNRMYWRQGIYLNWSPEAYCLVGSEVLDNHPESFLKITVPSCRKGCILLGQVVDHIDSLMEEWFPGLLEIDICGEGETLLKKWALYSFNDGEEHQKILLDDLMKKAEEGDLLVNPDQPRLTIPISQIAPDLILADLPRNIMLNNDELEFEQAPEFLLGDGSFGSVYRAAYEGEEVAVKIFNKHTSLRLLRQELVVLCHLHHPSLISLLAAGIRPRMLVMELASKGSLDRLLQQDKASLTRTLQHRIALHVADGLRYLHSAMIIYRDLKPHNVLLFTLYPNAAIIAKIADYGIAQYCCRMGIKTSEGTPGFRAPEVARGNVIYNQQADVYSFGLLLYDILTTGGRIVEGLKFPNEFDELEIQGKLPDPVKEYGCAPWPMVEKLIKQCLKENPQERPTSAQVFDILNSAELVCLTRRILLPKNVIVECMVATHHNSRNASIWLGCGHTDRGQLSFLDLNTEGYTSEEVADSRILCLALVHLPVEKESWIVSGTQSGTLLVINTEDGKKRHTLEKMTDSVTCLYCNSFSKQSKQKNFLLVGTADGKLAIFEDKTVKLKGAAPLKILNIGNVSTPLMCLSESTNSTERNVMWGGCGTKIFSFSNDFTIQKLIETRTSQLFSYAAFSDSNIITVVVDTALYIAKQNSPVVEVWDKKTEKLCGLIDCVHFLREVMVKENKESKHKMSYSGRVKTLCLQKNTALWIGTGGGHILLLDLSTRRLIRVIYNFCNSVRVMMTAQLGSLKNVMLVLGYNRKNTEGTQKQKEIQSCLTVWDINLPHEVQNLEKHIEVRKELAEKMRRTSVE
Sequence of Muscarinic acetylcholine receptor M5 (Homo sapiens) (P08912 whole entry): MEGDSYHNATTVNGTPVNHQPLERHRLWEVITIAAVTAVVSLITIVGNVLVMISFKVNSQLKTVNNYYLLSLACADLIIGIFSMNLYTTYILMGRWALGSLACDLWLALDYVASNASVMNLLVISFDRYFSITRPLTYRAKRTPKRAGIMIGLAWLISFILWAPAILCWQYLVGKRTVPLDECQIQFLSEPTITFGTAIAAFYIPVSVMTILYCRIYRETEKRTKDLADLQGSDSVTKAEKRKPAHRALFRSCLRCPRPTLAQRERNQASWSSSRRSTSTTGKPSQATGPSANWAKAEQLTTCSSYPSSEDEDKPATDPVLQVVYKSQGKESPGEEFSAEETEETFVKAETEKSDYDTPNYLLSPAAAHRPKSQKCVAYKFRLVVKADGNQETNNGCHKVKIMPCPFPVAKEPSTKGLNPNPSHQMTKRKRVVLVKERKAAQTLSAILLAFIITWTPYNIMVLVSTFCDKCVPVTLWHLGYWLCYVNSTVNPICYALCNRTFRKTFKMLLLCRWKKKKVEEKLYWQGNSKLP
Sequence of Cyclin-dependent kinase 4 (Homo sapiens) (P11802 whole entry): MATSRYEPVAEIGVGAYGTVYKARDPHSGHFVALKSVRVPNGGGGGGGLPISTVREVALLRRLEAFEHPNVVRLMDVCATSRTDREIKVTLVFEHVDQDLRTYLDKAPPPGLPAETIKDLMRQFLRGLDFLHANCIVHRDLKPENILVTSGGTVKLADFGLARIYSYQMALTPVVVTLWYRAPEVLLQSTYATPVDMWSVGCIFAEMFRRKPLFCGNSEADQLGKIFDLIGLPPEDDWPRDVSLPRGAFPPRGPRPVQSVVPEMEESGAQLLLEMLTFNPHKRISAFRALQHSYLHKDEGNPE

SMILES: Cc1c(NC(=O)c2cc(C(N)=O)nc3cc(F)ccc23)c(C(F)(F)F)nn1Cc1ccc(C(C)(C)C)cc1 [BAY-588]
- residual activity [1]: 100%
- residual activity [2]: 97%
- residual activity [3]: 100%
- residual activity [4]: 84%
- residual activity [5]: 100%
- residual activity [6]: 100%
- residual activity [7]: 98%
- residual activity [8]: 99%
- residual activity [9]: 100%
- residual activity [10]: 100%
- residual activity [11]: 94%
- residual activity [12]: 100%
- residual activity [13]: 100%
- residual activity [14]: 100%
- inhibition [15]: 18.6%
- residual activity [16]: 80%
- residual activity [17]: 100%
- residual activity [18]: 100%
- residual activity [19]: 100%
- residual activity [20]: 32%
- residual activity [21]: 100%
- residual activity [22]: 100%
- residual activity [23]: 100%
- residual activity [24]: 90%
- inhibition [25]: 11.9%
- residual activity [26]: 100%
- residual activity [27]: 82%
- residual activity [28]: 100%
- residual activity [29]: 90%
- residual activity [30]: 100%
- residual activity [31]: 100%
- residual activity [32]: 100%
- residual activity [33]: 100%
- residual activity [34]: 100%
- inhibition [35]: 7.12%
- residual activity [36]: 100%
- residual activity [37]: 100%
- residual activity [38]: 100%
- residual activity [39]: 100%
- residual activity [40]: 100%
- residual activity [41]: 100%
- residual activity [42]: 100%
- residual activity [43]: 98%
- residual activity [44]: 93%
- residual activity [45]: 98%

SMILES: Cc1c(NC(=O)c2cc(C(N)=O)nc3cc(F)ccc23)c(C(F)(F)F)nn1Cc1ccc(C#N)cc1 [BAY-876]
- residual activity [1]: 100%
- residual activity [2]: 77%
- residual activity [3]: 92%
- residual activity [4]: 100%
- residual activity [5]: 80%
- residual activity [6]: 99%
- residual activity [7]: 81%
- residual activity [8]: 95%
- residual activity [9]: 86%
- residual activity [10]: 100%
- residual activity [11]: 100%
- residual activity [12]: 100%
- residual activity [13]: 100%
- residual activity [14]: 61%
- inhibition [15]: -3.47%
- residual activity [16]: 80%
- residual activity [17]: 83%
- residual activity [18]: 100%
- residual activity [19]: 96%
- residual activity [20]: 85%
- residual activity [21]: 88%
- residual activity [22]: 100%
- residual activity [23]: 75%
- residual activity [24]: 76%
- inhibition [25]: 1.46%
- residual activity [26]: 60%
- residual activity [27]: 77%
- residual activity [28]: 87%
- residual activity [29]: 89%
- residual activity [30]: 100%
- residual activity [31]: 83%
- residual activity [32]: 72%
- residual activity [33]: 73%
- residual activity [34]: 95%
- inhibition [35]: 4.88%
- residual activity [36]: 90%
- residual activity [37]: 86%
- residual activity [38]: 62%
- residual activity [39]: 97%
- residual activity [40]: 76%
- residual activity [41]: 87%
- residual activity [42]: 98%
- residual activity [43]: 90%
- residual activity [44]: 100%
- residual activity [45]: 100%
